Source: US5215744A, “Methods for the treatment of tumors” (Boehringer Ingelheim GmbH, priority 1987, dated 1993)
“Also recorded” adds a separate entry of the source.

Legend:
KT cells = assay: Microscopic study of morphology; type: cell-based, human; conditions: combination treatment, dipyridamole 0.1 μM and HuIFN-α 10 units/ml (FIG. 6)
Excerpt: (§1) Cells seeded in test dishes were observed and photographed using OLYMPUS IMT-2 ([…] amplification).

MM-1CB = assay: Microscopic study of morphology; type: cell-based, human; conditions: dipyridamole 0.1 μM with HuIFN-β 10 units/ml, 6 days (FIG. 2)
Excerpt: as §1

PLC/PRF/5 cells = assay: Microscopic study of morphology; type: cell-based, human; conditions: combination treatment, dipyridamole 0.1 μM and HuIFN-β 10 units/ml (FIG. 7)
Excerpt: as §1

MM-1CB cells = assay: Survival of MM-1CB cells after sequential dipyridamole / interferon β treatment; type: cell-based, human; conditions: vs simultaneous administration; cells cultured in dishes (FIG. 11)
Experimental: Experimental numbers (Exp. Nos.) 1, 2, and 3 were the results obtained under reported cell-culture-conditions. In Exp. Nos. 4 and 5, treatment with DP alone and without IFN β was done during […] of the experiment schedule, respectively. In Exp. No. 6 IFN β treatment alone, without the DP addition, was done after DP treatment alone for the first 24 hours of the experimental schedule; after the DP treatment culture medium was depleted and cells were washed three times with Eagle's minimal essential medium, followed by being cultured with medium containing IFN β.

DNA of MM-1CB cells = assay: Alkaline sucrose gradient assay (DNA damage); type: cell-based, human; conditions: 10 μM dipyridamole 24 h then 10^3 IU/ml IFNβ 24 h (FIG. 12)
Experimental: Cells (2×10^5), prelabelled with [^14 C]Thymidine, were seeded in 60 mm culture dishes and then cultured with and without agents. After the indicated tie cells were scraped off from the dishes and suspended in ice-cold phosphate-buffer saline solution containing 10 mM EDTA.
The cell suspensions were then exposed to 100R of X-rays in order to facilitate the unwinding and separation of DNA strands, and the solution containing SDS was applied to the cells, 2% of the final concentration of sodium dodecil sulfate (SDS).
The cell lysates were layered on alkaline solution with 5-20% sucrose gradients containing 0.1M NaOH and 0.1M NaCl. Then the gradients were immediately centrifuged at 10,000 rpm for 17 hr at 20° C. in a Hitachi RPS55T rotor.
After centrifugation, solutions were fractionated and collected onto Whatmann 17 CHROMA paper strips. Radioactivity of acid-insoluble materials on the strips were counted in toluene based scintillator. The percentage of the total dpm in each fraction was calculated taking the input dpm as 100%.
C 10^3 IU/ml IFNβ exposure for 48 hr;

SEKI-F melanoma cells = assay: Survival after continuous exposure to dipyridamole and interferon β; type: cell-based, human
Excerpt: Culture and the exposure conditions were the same as described in the previous manuscript.

[1] = test system: activity of N-phosphoracetyl-L-aspartate (PALA); conditions: in vitro and in vivo; cited from earlier work
[2] = test system: ridgway osteogenic sarcoma; conditions: with MTX; cited from earlier work
interferon in mice = conditions: I.V.; cited from earlier work
[3] = test system: nucleoside transport through the cell membrane; conditions: cited from earlier work
DNA = conditions: dipyridamole alone; cited from earlier work

## OCCN(CCO)c1nc(N2CCCCC2)c2nc(N(CCO)CCO)nc(N3CCCCC3)c2n1 [dipyridamole, 2,6-bis(diethanolamine)-4,8-dipiperidino-pyrimido[5,4-d]pyrimidin]
KT cells
  cellular morphological conditions: showed impairment after the combination treatment
MM-1CB
  cell morphology: morphologically impaired
PLC/PRF/5 cells
  cellular morphological conditions: showed impairment after the combination treatment
MM-1CB cells
  effect of dipyridamole pretreatment on proliferation: more effective than a simultaneous administration of the two agents
DNA of MM-1CB cells
  DNA damage under alkaline assay conditions: resulted in damaged DNA; also recorded: the most part DNA shifted into lower molecular mass
SEKI-F melanoma cells; dipyridamole alone (FIG. 14)
  inhibitory effect on cell proliferation: little inhibitory effect on cell proliferation
SEKI-F melanoma cells; with interferon β 100-1000 IU/ml, 6 days (FIG. 14)
  enhancement of cell proliferation inhibition induced by interferon: can enhance cell proliferation inhibition induced by interferon
[1]
  potentiation of PALA: can potentiate the activity of N-phosphoracetyl-L-aspartate (PALA) in vitro and in vivo
[2]
  antitumor activity of MTX: not dramatically improved
Interferon in mice
  interferon induction in mice: induced interferon in mice after I.V. administration
[3]
  nucleoside transport: can inhibit nucleoside transport through the cell membrane
DNA
  DNA damage: does not damage DNA
